Data as given in US20070142304A1, “Diphenylazetidinone derivatives possessing chloesterol absorption inhibitory activity” (priority 2003, published 2007).

System: 14C-cholesterol absorption
Assay: In Vivo Testing of Cholesterol Absorption Inhibitors (A)
Details: 5 μmol/kg by gavage, C57BL/6 female mice, procedure A
Procedure: In Vivo Testing of Cholesterol Absorption Inhibitors (A)
C57BL/6 female mice were maintained on regular chow diet and housed in individual cages to collect faeces. Mice were fasted for 3 hours and then gavaged with vehicle or compound. Half an hour later the mice were gavaged with radiolabelled cholesterol. Six hours after the ^14C-cholesterol gavage blood samples were taken via the tail and plasma prepared to determine how much cholesterol were absorbed. 24 hours after the gavage of ^14C-cholesterol the mice were bled and plasma were prepared for analysis. Faeces were collected for 24 hours to assess absorption efficiency.

SMILES	inhibition of 14C-cholesterol absorption [%]
CC(C)CC(NC(=O)COc1ccc(C2C(CCC(O)c3ccc(F)cc3)C(=O)N2c2ccc(F)cc2)cc1)C(=O)NC(Cc1ccccc1)C(=O)O [Example 3, 1-(4-Fluorophenyl)-3-(R)-[3-(4-fluorophenyl)-3-hydroxypropyl]-4-(S)-{4-[N-((R)-1-{N-[1-(R)-(carboxy)-2-(phenyl)ethyl]carbamoyl}-3-methylbutyl)carbamoylmethoxy]phenyl}azetidin-2-one]	75
O=C(COc1ccc(C2C(CCC(O)c3ccc(F)cc3)C(=O)N2c2ccc(F)cc2)cc1)NC(Cc1ccccc1)C(=O)NC(CO)C(=O)O [Example 4, 1-(4-Fluorophenyl)-3-(R)-[3-(4-fluorophenyl)-3-hydroxypropyl]-4-(S)-[4-(N-{1-(R)-[N-(1-(S)-carboxy-2-hydroxyethyl)carbamoyl]-2-phenylethyl}carbamoylmethoxy)phenyl]azetidin-2-one]	58
